Experimental data taken from the supplement of paper PMC10307832.

Legend:
Experiment in all cases: relative viability (nuclei count vs DMSO), 5 days (fraction); higher = more cells survive
YM155 + Lapatinib = compound: COCC[n+]1c2c(n(Cc3cnccn3)c1C)C(=O)c1ccccc1C2=O [YM155] + CS(=O)(=O)CCNCc1ccc(-c2ccc3ncnc(Nc4ccc(OCc5cccc(F)c5)c(Cl)c4)c3c2)o1 [Lapatinib] (partner 2 µM)
Outline: (§1)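 Each reported value is a median over duplicate plates. It expresses relative viability: treated-well nuclei count divided by vehicle-well nuclei count. Lung cancer cell lines in 1536-well plates were dosed by pin tool a day after seeding, alone with one drug or with a fixed anchor-drug dose plus five library-drug doses (not always all listed) in √10 steps, and nuclei were counted after 5 days.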

Quizartinib + Phenformin = compound: CC(C)(C)c1cc(NC(=O)Nc2ccc(-c3cn4c(n3)sc3cc(OCCN5CCOCC5)ccc34)cc2)no1 [Quizartinib] + N=C(N)NC(=N)NCCc1ccccc1 [Phenformin] (partner 250 µM)
Outline: as §1

YM155 + Bortezomib = compound: COCC[n+]1c2c(n(Cc3cnccn3)c1C)C(=O)c1ccccc1C2=O [YM155] + CC(C)C[C@H](NC(=O)[C@H](Cc1ccccc1)NC(=O)c1cnccn1)B(O)O [Bortezomib] (partner 0.002 µM)
Outline: as §1

Quizartinib + Tozasertib = compound: CC(C)(C)c1cc(NC(=O)Nc2ccc(-c3cn4c(n3)sc3cc(OCCN5CCOCC5)ccc34)cc2)no1 [Quizartinib] + Cc1cc(Nc2cc(N3CCN(C)CC3)nc(Sc3ccc(NC(=O)C4CC4)cc3)n2)n[nH]1 [Tozasertib] (partner 0.1 µM)
Outline: as §1

| Cell Line | relative viability (YM155 + Lapatinib; first compound 0.002 µM) | relative viability (YM155 + Lapatinib; first compound 0.006325 µM) | relative viability (YM155 + Lapatinib; first compound 0.02 µM) | relative viability (YM155 + Lapatinib; first compound 0.06325 µM) | relative viability (Quizartinib + Phenformin; first compound 0.001 µM) | relative viability (Quizartinib + Phenformin; first compound 0.003162 µM) | relative viability (Quizartinib + Phenformin; first compound 0.01 µM) | relative viability (Quizartinib + Phenformin; first compound 0.03162 µM) | relative viability (Quizartinib + Phenformin; first compound 0.1 µM) | relative viability (YM155 + Bortezomib; first compound 0.002 µM) | relative viability (YM155 + Bortezomib; first compound 0.006325 µM) | relative viability (YM155 + Bortezomib; first compound 0.02 µM) | relative viability (YM155 + Bortezomib; first compound 0.06325 µM) | relative viability (Quizartinib + Tozasertib; first compound 0.001 µM) | relative viability (Quizartinib + Tozasertib; first compound 0.003162 µM) | relative viability (Quizartinib + Tozasertib; first compound 0.01 µM) | relative viability (Quizartinib + Tozasertib; first compound 0.03162 µM) | relative viability (Quizartinib + Tozasertib; first compound 0.1 µM) |
| --- | --- | --- | --- | --- | --- | --- | --- | --- | --- | --- | --- | --- | --- | --- | --- | --- | --- | --- |
| NCI-H520 | 0.801 | 0.733 | 1.16 | 1.02 | 0.582 | 0.526 | 0.532 | 0.357 | 0.35 | 0.586 | 0.62 | 0.653 | 1 | 0.347 | 0.448 | 0.444 | 0.393 | 0.385 |
| RERF-LC-KJ | 0.755 | 0.853 | 0.88 | 0.821 | 0.394 | 0.397 | 0.424 | 0.359 | 0.315 | 1.11 | 1.18 | 1.09 | 1.25 | 0.47 | 0.445 | 0.53 | 0.248 | 0.337 |
| ABC-1 | 1.13 | – | 1.18 | 0.518 | 0.237 | 0.322 | 0.227 | 0.261 | 0.18 | 0.271 | 0.4 | 0.241 | 0.209 | 0.184 | 0.179 | 0.172 | 0.205 | 0.183 |
| NCI-H3122 | 1 | 0.997 | 1.01 | 1.08 | – | 0.377 | 0.381 | – | 0.359 | 1 | 1.01 | 1.05 | 0.973 | – | 0.368 | 0.483 | – | 0.337 |
| HARA | 0.623 | 0.862 | 0.701 | 0.959 | – | 0.453 | 0.489 | 0.445 | 0.386 | 1.06 | 1.1 | 1.14 | 1.04 | – | 0.101 | 0.102 | 0.0944 | 0.122 |
| SK-LU-1 | 0.835 | 0.85 | 0.971 | 0.653 | 0.482 | 0.504 | 0.625 | 0.451 | 0.549 | 1.05 | 1.04 | 1.54 | 1.09 | 0.268 | 0.303 | 0.378 | 0.319 | 0.309 |
| NCI-H596 | – | 1.11 | 1.09 | 1.06 | 0.834 | 0.681 | 0.712 | 0.667 | 0.714 | – | 1.18 | 0.946 | 1.19 | 0.642 | 0.838 | 0.964 | 0.803 | 0.64 |
| UMC-11 | 0.846 | 0.964 | 0.994 | 0.93 | – | 0.255 | 0.307 | 0.268 | 0.212 | 0.692 | 0.557 | 0.719 | 0.667 | – | 0.194 | 0.204 | 0.223 | 0.222 |
| NCI-H1355 | 0.934 | 1.04 | 0.996 | 1.02 | 0.426 | 0.434 | 0.437 | 0.426 | 0.415 | 1.11 | 1.27 | 1.25 | 1.22 | 0.495 | 0.542 | 0.51 | 0.442 | 0.433 |
| NCI-H2228 | 0.856 | 1.16 | 0.988 | 0.998 | 0.242 | 0.228 | 0.52 | 0.345 | 0.26 | 0.975 | 0.923 | 1.11 | 1.1 | 0.2 | 0.2 | 0.208 | 0.228 | 0.187 |
